Test: Quantification of curcumin in lungs of injected asthmatic mice (UV absorbance)
Assay type: in vivo, mouse
Details: IV SCET
Procedure: […] Each lung was placed in a labeled container with 1 ml PBS. The lungs were then sonicated for 10 seconds by the Sonic Dismembrinator 60 (Fisher Scientific) to lyse the Sertoli cells and release the curcumin nanoparticles. The curcumin was then separated from the nanoparticles by adding 500 μl DMSO to each container. The suspension was then centrifuged at 1200 rpm for 10 minutes and the supernatant was collected. A UV spectrum was collected from each supernatant sample.
In addition to normal mice, some female C57BL/6 and BALB/c mice were sensitized by intraperitoneal injection (i.p.) of 10 μl ovalbumin (OVA) with alum as previously described to mimic acute allergic asthma (Weggman, M. Animal models of chronic experimental asthma—strategies for the identification of new therapeutic targets. Occup Med Toxicol. 3 (Suppl 1) (2008); Temelkovski J, Hogan S P, Shepherd D P, Foster P S, Kumar R K. An improved murinemodel of asthma: selective airway inflammation, epithelial lesions and increased methacholine responsiveness following chronic exposure to aerosolised allergen. Thorax. 10, 849-56 (1998)). The mice were challenged weekly for 3 weeks with an intranasal injection (i.n.) of 25 μl OVA (20 mg/ml). One hour after the last i.n. challenge, the treatment group (n=7) was injected via the tail vein with pre-loaded, pre-labeled SCET (8×10^6) that contained nanoparticles coupled with […] curcumin dose. Others asthmatic mice were not injected with SCET to serve as untreated controls (n=6). […]
Each lung was placed in a labeled container with 1 ml PBS. The lungs were then sonicated for 10 seconds by the Sonic Dismembrinator 60 (Fisher Scientific) to lyse the Sertoli cells and release the curcumin nanoparticles. The curcumn was then separated from the nanoparticles by adding 500 μl DMSO to each container. The suspension was then centrifuged at 1200 rpm for 10 minutes and the supernatant was collected. A UV spectrum was collected from each supernatant sample. Data was presented for absorbance assays of Sertoli cells, nanoparticles and curcumin from all samples from all mice, including a sample of the nanoparticle pre-loaded, pre-labeled SC injectable (8×10^6) were replicated and the mean values of SCs, nanoparticles and curcumin were expressed as a percentage of the mean value determined in the pre-loaded, pre-labeled Sertloli cell injectable (8×10^6)

COc1cc(/C=C/C(=O)CC(=O)/C=C/c2ccc(O)c(OC)c2)ccc1O [curcumin]
80%: percentage of injected curcumin load present in the lungs (15 minutes post-injection) | delivery of curcumin throughout the pulmonary tissue (time not stated) | percentage of total curcumin in the injected SCET found in the lungs (asthmatic mice, 25 hours following injection) | percentage of injected curcumin load present in the lungs (asthmatic mice, one hour post-injection)

Reference: US10272053B2, “Nanoparticle targeted drug delivery to the lungs using extra-testicular sertoli cells” (UNIVERSITY OF SOUTH FLORIDA, priority 2008, dated 2019)
